Values joined by “and” are separate entries in the source; they are usually repeats but may differ in a detail not shown here. Equal entries are not always repeated.
Molecular target: T1, mut-GVHH PmIleRS2 (Priestia megaterium, UniProt A0A0B6AVD3, G56H/H54G)
T1 sequence (A0A0B6AVD3 1-1032 H54G/G56H): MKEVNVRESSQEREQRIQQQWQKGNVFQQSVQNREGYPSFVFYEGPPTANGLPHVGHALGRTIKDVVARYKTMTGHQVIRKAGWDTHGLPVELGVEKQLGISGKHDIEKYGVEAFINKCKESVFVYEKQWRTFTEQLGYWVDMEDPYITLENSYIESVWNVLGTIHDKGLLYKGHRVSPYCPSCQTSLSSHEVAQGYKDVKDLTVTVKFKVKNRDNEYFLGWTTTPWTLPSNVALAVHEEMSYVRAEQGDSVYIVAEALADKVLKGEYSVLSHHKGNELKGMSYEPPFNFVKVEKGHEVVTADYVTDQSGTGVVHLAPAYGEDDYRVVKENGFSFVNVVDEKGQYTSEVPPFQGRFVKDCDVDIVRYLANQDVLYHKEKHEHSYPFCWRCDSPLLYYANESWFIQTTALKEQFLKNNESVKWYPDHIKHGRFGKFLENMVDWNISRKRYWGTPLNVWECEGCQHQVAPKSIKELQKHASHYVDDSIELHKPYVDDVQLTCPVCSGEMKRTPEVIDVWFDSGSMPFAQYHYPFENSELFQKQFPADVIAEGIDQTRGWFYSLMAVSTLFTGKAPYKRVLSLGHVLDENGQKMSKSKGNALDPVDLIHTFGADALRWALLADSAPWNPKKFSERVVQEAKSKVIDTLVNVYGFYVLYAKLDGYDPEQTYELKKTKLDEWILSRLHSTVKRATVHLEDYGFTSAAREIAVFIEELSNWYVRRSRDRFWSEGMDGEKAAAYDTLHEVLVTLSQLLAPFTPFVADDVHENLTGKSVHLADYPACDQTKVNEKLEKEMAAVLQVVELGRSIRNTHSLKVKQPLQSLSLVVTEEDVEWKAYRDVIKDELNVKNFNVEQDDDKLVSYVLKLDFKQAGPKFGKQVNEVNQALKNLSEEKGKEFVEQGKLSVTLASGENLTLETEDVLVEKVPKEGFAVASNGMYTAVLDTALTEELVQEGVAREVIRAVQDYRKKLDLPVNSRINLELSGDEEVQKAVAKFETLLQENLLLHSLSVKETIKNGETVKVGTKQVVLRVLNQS
Test: ATP-PPi exchange assay, mupirocin inhibition of amino acid activation
Format: biochemical, Priestia (Bacillus) megaterium
Description: L-Ile and ATP concentrations ranged from 1/10 KM to 10 KM values. When measuring the KI towards one of the substrates, the other was held in saturation (concentrations at least 10 KM). The aliquots of the reaction mixture (1–2.5 μl) were quenched in 2 volumes of 500 mM NaOAc pH = 4.5, 0.1% SDS, and formed ^32P-ATP was separated from the remaining ^32P-PPi by thin-layer chromatography on Polygram CEL 300 PEI UV254 TLC plates (Macherey-Nagel, cat: 801063) using 750 mM KH2PO4 pH=3.5, 4 M urea buffer. Visualization and quantification of the signals was performed using a Typhoon Phosphoimager 5 (General Electric) and accompanying ImageQuant™ TL software (SV: 10.2). The kinetic constants were determined using a global fit option of the competitive inhibition model of GraphPad Prism 6 software (SV: 6.01). All experiments were performed in triplicates. The kcat was determined by dividing the maximal velocity, VM, with the used enzyme concentration. […]
variable substrate (ATP or Ile) was varied in the range of 0.1 KM to 10 KM. The other substrate (Ile or ATP) was kept in excess at 5 to 10 KM. Data were globally fitted to the competitive inhibition model using GraphPad prism 6.01 for Windows software. The values represent the average value ± SD of three independent experiments. Source data are provided as a Source Data file.

In the case of `C/C(=C\C(=O)OCCCCCCCCC(=O)O)C[C@@H]1OC[C@H](C[C@@H]2O[C@H]2[C@@H](C)[C@H](C)O)[C@@H](O)[C@H]1O` [mupirocin], the vo (c (mupirocin) = 5.0 mM, c (Ile) 250.0 μM, Replica 3) is reported as 0.00839 mM/min, the vo (c (mupirocin) = 5.0 mM, c (Ile) 500.0 μM, Replica 1) is reported as 0.01582 mM/min and the vo (c (mupirocin) = 5.0 mM, c (Ile) 500.0 μM, Replica 2) is reported as 0.01771 mM/min. For the same compound, the vo (c (mupirocin) = 5.0 mM, c (Ile) 500.0 μM, Replica 3) was 0.01671 mM/min, the vo (c (mupirocin) = 5.0 mM, c (Ile) 1000.0 μM, Replica 1) was 0.02937 mM/min and the vo (c (mupirocin) = 5.0 mM, c (Ile) 1000.0 μM, Replica 2) was 0.03008 mM/min. It also gave a vo (c (mupirocin) = 5.0 mM, c (Ile) 1000.0 μM, Replica 3) of 0.02918 mM/min, a vo (c (mupirocin) = 5.0 mM, c (Ile) 1500.0 μM, Replica 1) of 0.03962 mM/min and a vo (c (mupirocin) = 5.0 mM, c (Ile) 1500.0 μM, Replica 2) of 0.03913 mM/min. The vo (c (mupirocin) = 5.0 mM, c (Ile) 1500.0 μM, Replica 3) was 0.04025 mM/min, the vo (c (mupirocin) = 10.0 mM, c (Ile) 100.0 μM, Replica 1) was 0.00192 mM/min and the vo (c (mupirocin) = 10.0 mM, c (Ile) 100.0 μM, Replica 2) was 0.00188 mM/min. It also gave a vo (c (mupirocin) = 10.0 mM, c (Ile) 100.0 μM, Replica 3) of 0.00205 mM/min, a vo (c (mupirocin) = 10.0 mM, c (Ile) 250.0 μM, Replica 1) of 0.00384 mM/min and a vo (c (mupirocin) = 10.0 mM, c (Ile) 250.0 μM, Replica 2) of 0.00477 mM/min. The vo (c (mupirocin) = 10.0 mM, c (Ile) 250.0 μM, Replica 3) was 0.00429 mM/min, the vo (c (mupirocin) = 10.0 mM, c (Ile) 500.0 μM, Replica 1) was 0.00975 mM/min and the vo (c (mupirocin) = 10.0 mM, c (Ile) 500.0 μM, Replica 2) was 0.01055 mM/min. The vo (c (mupirocin) = 10.0 mM, c (Ile) 500.0 μM, Replica 3) was 0.01023 mM/min, the vo (c (mupirocin) = 10.0 mM, c (Ile) 1000.0 μM, Replica 1) was 0.01549 mM/min and the vo (c (mupirocin) = 10.0 mM, c (Ile) 1000.0 μM, Replica 2) was 0.01681 mM/min. For the same compound, the vo (c (mupirocin) = 10.0 mM, c (Ile) 1000.0 μM, Replica 3) was 0.01726 mM/min, the vo (c (mupirocin) = 10.0 mM, c (Ile) 1500.0 μM, Replica 1) was 0.02248 mM/min and the vo (c (mupirocin) = 10.0 mM, c (Ile) 1500.0 μM, Replica 2) was 0.02398 mM/min. The vo (c (mupirocin) = 10.0 mM, c (Ile) 1500.0 μM, Replica 3) was 0.02428 mM/min, the initial velocity vo (c(mupirocin) 0.5 mM, c(ATP) 0.5 mM) was 0.00635 mM/min and 0.00811 mM/min and the initial velocity vo (c(mupirocin) 0.5 mM, c(ATP) 1.0 mM) was 0.01441 mM/min and 0.01486 mM/min and 0.01387 mM/min. The initial velocity vo (c(mupirocin) 0.5 mM, c(ATP) 2.5 mM) was 0.03283 mM/min and 0.03264 mM/min and 0.03523 mM/min, the initial velocity vo (c(mupirocin) 0.5 mM, c(ATP) 5.0 mM) was 0.05375 mM/min and 0.05359 mM/min and 0.05506 mM/min and the initial velocity vo (c(mupirocin) 0.5 mM, c(ATP) 10.0 mM) was 0.07349 mM/min and 0.07632 mM/min and 0.07609 mM/min. The initial velocity vo (c(mupirocin) 0.5 mM, c(ATP) 20.0 mM) was 0.09482 mM/min and 0.09569 mM/min and 0.09403 mM/min, the initial velocity vo (c(mupirocin) 0.5 mM, c(Ile) 50.0 μM) was 0.00742 mM/min and 0.00851 mM/min and 0.00786 mM/min and the initial velocity vo (c(mupirocin) 1.0 mM, c(ATP) 0.5 mM) was 0.00716 mM/min and 0.0055 mM/min and 0.00625 mM/min. The initial velocity vo (c(mupirocin) 1.0 mM, c(ATP) 1.0 mM) was 0.01194 mM/min and 0.01202 mM/min and 0.01221 mM/min, the initial velocity vo (c(mupirocin) 1.0 mM, c(ATP) 2.5 mM) was 0.0252 mM/min and 0.02429 mM/min and 0.02403 mM/min and the initial velocity vo (c(mupirocin) 1.0 mM, c(ATP) 5.0 mM) was 0.04205 mM/min and 0.0434 mM/min and 0.0426 mM/min. For the same compound, the initial velocity vo (c(mupirocin) 1.0 mM, c(ATP) 10.0 mM) was 0.06359 mM/min and 0.06579 mM/min and 0.06457 mM/min, the initial velocity vo (c(mupirocin) 1.0 mM, c(ATP) 20.0 mM) was 0.08534 mM/min and 0.08763 mM/min and 0.08559 mM/min and the initial velocity vo (c(mupirocin) 1.0 mM, c(Ile) 50.0 μM) was 0.00713 mM/min and 0.00706 mM/min and 0.00704 mM/min. For the same compound, the initial velocity vo (c(mupirocin) 2.5 mM, c(ATP) 1.0 mM) was 0.00558 mM/min and 0.0055 mM/min and 0.00551 mM/min, the initial velocity vo (c(mupirocin) 2.5 mM, c(ATP) 2.5 mM) was 0.01306 mM/min and 0.01742 mM/min and 0.01281 mM/min and the initial velocity vo (c(mupirocin) 2.5 mM, c(ATP) 5.0 mM) was 0.02499 mM/min and 0.026 mM/min and 0.02496 mM/min. For the same compound, the initial velocity vo (c(mupirocin) 2.5 mM, c(ATP) 10.0 mM) was 0.04221 mM/min and 0.04045 mM/min and 0.04296 mM/min, the initial velocity vo (c(mupirocin) 2.5 mM, c(ATP) 20.0 mM) was 0.05896 mM/min and 0.06416 mM/min and 0.05964 mM/min and the initial velocity vo (c(mupirocin) 2.5 mM, c(Ile) 50.0 μM) was 0.00279 mM/min and 0.00348 mM/min and 0.00209 mM/min. The initial velocity vo (c(mupirocin) 5.0 mM, c(ATP) 0.5 mM) was 0.00206 mM/min and 0.00219 mM/min and 0.0025 mM/min, the initial velocity vo (c(mupirocin) 5.0 mM, c(ATP) 1.0 mM) was 0.00362 mM/min and 0.00342 mM/min and 0.00337 mM/min and the initial velocity vo (c(mupirocin) 5.0 mM, c(ATP) 2.5 mM) was 0.00795 mM/min and 0.00842 mM/min and 0.00825 mM/min. For the same compound, the initial velocity vo (c(mupirocin) 5.0 mM, c(ATP) 5.0 mM) was 0.01509 mM/min and 0.0154 mM/min and 0.01576 mM/min, the initial velocity vo (c(mupirocin) 5.0 mM, c(ATP) 10.0 mM) was 0.02771 mM/min and 0.02665 mM/min and 0.0265 mM/min and the initial velocity vo (c(mupirocin) 5.0 mM, c(ATP) 20.0 mM) was 0.04308 mM/min and 0.04226 mM/min. The initial velocity vo (c(mupirocin) 5.0 mM, c(Ile) 50.0 μM) was 0.00223 mM/min and 0.00239 mM/min and 0.00197 mM/min and the initial velocity vo (c(mupirocin) 10.0 mM, c(Ile) 50.0 μM) was 0.00094 mM/min and 0.00075 mM/min and 0.00127 mM/min.
